The target in test [1] is soluble human BACE1 catalytic domain (Homo sapiens, UniProt P56817). The test is described as follows: BACE1 HTRF FRET Assay. The following applies: Ki calculated from IC50 using the Cheng-Prusoff equation; QSY7-APPswe-Eu substrate 200 nM final, pH 5.0, 30° C. Format: biochemical. How it is done: A homogeneous time-resolved FRET assay can be used to determine IC50 values for inhibitors of the soluble human BACE1 catalytic domain. […] This substrate contains an N-terminal QSY7 moiety that serves as a quencher of the C-terminal Europium fluorophore (620nm Em). […] Inhibition of BACE1 cleavage of the QSY7-APP^swe-Eu substrate by inhibitors is manifested as a suppression of 620 nm fluorescence. […] The reactions are incubated at 30° C for 1.5 hours. The 620nm fluorescence is then read on a Rubystar HTRF plate reader (BMG Labtechnologies) using a 50 millisecond delay followed by a 400 millisecond acquisition time window. Inhibitor IC50 values are derived from non-linear regression analysis of concentration response curves.

The target in test [2] is T1, purified human autoBACE-2 (Homo sapiens, UniProt Q9Y5Z0).
T1 sequence (Q9Y5Z0 63-473 limits assumed): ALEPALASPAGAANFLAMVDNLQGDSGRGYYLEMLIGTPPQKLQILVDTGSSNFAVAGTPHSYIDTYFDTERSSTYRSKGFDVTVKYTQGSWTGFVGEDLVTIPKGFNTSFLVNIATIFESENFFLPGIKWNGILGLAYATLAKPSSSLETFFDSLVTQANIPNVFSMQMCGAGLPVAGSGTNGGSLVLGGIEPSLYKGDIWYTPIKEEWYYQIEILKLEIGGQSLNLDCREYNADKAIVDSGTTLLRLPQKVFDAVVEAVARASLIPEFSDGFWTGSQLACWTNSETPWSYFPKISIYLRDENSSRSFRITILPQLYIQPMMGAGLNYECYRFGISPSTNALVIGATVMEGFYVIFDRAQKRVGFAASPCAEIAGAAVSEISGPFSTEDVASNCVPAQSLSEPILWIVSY
The test is described as follows: BACE-2 Assay (BACE-HTRF assay). Format: biochemical. The following applies: Ki calculated from IC50 using the Cheng-Prusoff equation; QSY7-EISEVNLDAEFC-Eu-amide substrate 200 nM final, pH 5.0, 30°C; read-out: BACE2 Ki. Here is the method:
Inhibitor IC50's at purified human autoBACE-2 are determined in a time-resolved endpoint proteolysis assay that measures hydrolysis of the QSY7-[…]-Eu-amide FRET peptide substrate (BACE-HTRF assay). […] Inhibitor compounds, prepared at 3x the desired final concentration in 1x BACE assay buffer (20 mM sodium acetate pH 5.0,10% glycerol, 0.1% Brij-35) supplemented with 7.5% DMSO are pre-incubated with an equal volume of autoBACE-2 enzyme diluted in 1x BACE assay buffer (final enzyme concentration 1 nM) in black 384-well NUNC plates for 30 minutes at 30°C. […] DMSO is present at 5% final concentration in the assay. Following laser excitation of sample wells at 320 nm, the fluorescence signal at 620 nm is collected for 400 ms following a 50 µs delay on a RUBYstar HTRF plate reader (BMG Labtechnologies). Raw RFU data is normalized to maximum (1.0 nM BACE/DMSO) and minimum (no enzyme/DMSO) RFU values. […] The Ki values are calculated from the IC50 using the Cheng-Prusoff equation.

soluble human BACE1 catalytic domain, sequence (P56817 75-416 limits assumed): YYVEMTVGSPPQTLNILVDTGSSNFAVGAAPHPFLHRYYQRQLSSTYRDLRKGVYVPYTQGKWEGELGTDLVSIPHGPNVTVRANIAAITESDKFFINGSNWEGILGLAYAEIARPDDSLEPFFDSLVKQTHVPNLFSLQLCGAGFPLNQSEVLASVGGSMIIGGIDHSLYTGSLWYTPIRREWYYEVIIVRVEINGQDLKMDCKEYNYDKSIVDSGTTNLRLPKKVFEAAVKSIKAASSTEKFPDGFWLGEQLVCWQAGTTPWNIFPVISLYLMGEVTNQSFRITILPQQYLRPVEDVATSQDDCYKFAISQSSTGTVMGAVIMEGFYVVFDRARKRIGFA

In general, Ki refers to the equilibrium dissociation constant of an inhibitor or competing ligand from its target. On to `CN1C(=N)N[C@](C)(c2cc(NC(=O)c3ccc(F)cn3)ccc2F)[C@]2(CCN(S(=O)(=O)c3cn(C)cn3)C2)S1(=O)=O` [Example 81], for which the inhibition constant Ki in test [1] is 8 nM; in test [2], 24 nM.

As to `CN1C(=N)N[C@](C)(c2cc(NC(=O)c3ccc(F)cn3)ccc2F)[C@]2(CCN(S(=O)(=O)c3cn[nH]c3)C2)S1(=O)=O` [Example 83], the inhibitory constant (Ki) in test [1] was 5 nM; in test [2] it was 11 nM.

Turning to `CN1C(=N)N[C@](C)(c2cc(NC(=O)c3ccc(F)cn3)ccc2F)[C@]2(CCN(S(=O)(=O)C3CCCC3)C2)S1(=O)=O` [Example 84], the inhibitory constant (Ki) in test [1] and in test [2] was 2 nM throughout.

Turning to `CN1C(=N)N[C@](C)(c2cc(NC(=O)c3ccc(F)cn3)ccc2F)[C@@]2(CCN(S(=O)(=O)C3CCCC3)C2)S1(=O)=O` [Example 85], the values for the Ki in test [1] and in test [2] were 41 nM and 37 nM, respectively.

On to `CN1C(=N)N[C@](C)(c2cc(NC(=O)c3ccc(F)cn3)ccc2F)[C@@]2(CCN(S(C)(=O)=O)C2)S1(=O)=O` [Example 88], for which the Ki was 34 nM in test [1] and 54 nM in test [2].

Regarding `CCS(=O)(=O)N1CC[C@]2(C1)[C@@](C)(c1cc(NC(=O)c3ccc(F)cn3)ccc1F)NC(=N)N(C)S2(=O)=O` [Example 89], the results for the Ki in test [1] and in test [2] were 45 nM and 41 nM, respectively.

On to `CC(C)CS(=O)(=O)N1CC[C@]2(C1)[C@@](C)(c1cc(NC(=O)c3ccc(F)cn3)ccc1F)NC(=N)N(C)S2(=O)=O` [Example 90], for which the values for the inhibition constant (Ki) in test [1] and in test [2] were 48 nM and 29 nM, respectively.

As to `CN1C(=N)N[C@](C)(c2cc(NC(=O)c3ccc(F)cn3)ccc2F)[C@@]2(CCN(S(=O)(=O)C3CC3)C2)S1(=O)=O` [Example 92], the results for the inhibition constant Ki in test [1] and in test [2] were 41 nM and 29 nM, respectively.

`CN1C(=N)N[C@](C)(c2cc(NC(=O)c3ccc(F)cn3)ccc2F)[C@@]2(CCN(S(=O)(=O)Cc3cccnc3)C2)S1(=O)=O` [Example 93]: the values for the Ki in test [1] and in test [2] were 28 nM and 20 nM, respectively.

With `CN1C(=N)N[C@](C)(c2cc(NC(=O)c3ccc(F)cn3)ccc2F)[C@@]2(CCN(S(=O)(=O)c3cn(C)cn3)C2)S1(=O)=O` [Example 94], the Ki in test [1] is 37 nM; in test [2], 19 nM.

In the case of `COCC(=O)Nc1ccc(F)c([C@@]2(C)NC(=N)N(C)S(=O)(=O)[C@@]23CCNC3)c1` [Example 97], the values for the inhibition constant (Ki) in test [1] and in test [2] were 1040 nM and 782 nM, respectively.

The values are drawn from patent EP2934149B1, “C6-AZASPIRO IMINOTHIADIAZINE DIOXIDES AS BACE INHIBITORS” (Merck Sharp & Dohme Corp., priority 2012, dated 2014).
